Experimental data as given in patent US6841177B1, “Pharmacological activities of curcuma longa extracts” (ASAC Compania de Biotecnologia e Investigacion S.A., priority 1999, dated 2005).
Entries after “also recorded” stand apart in the source; their conditions may differ.

Tested on: HaCat cells
Test: Incorporation of BrdU in the DNA of human keratinocytes after radiation with ultraviolet light
Format: cell-based
Description: Culture of the HaCat line
The HaCat line is an immortalized line of normal human keratinocytes. These cells grow in a culture medium consisting of Hanks liquid to which 5% of foetal bovine serum and 2% of penicillin-streptomycin is added at 37° C. in a CO2 atmosphere.
To determine the replication rate, the cells were grown in microplates at a density of 2*10^4 cells per matrix. After 24 hours of treatment, the media was renewed and the cultures were incubated for 24 hours at 37° C. with different concentrations of the extracts and different concentrations of the curcumin and psoralen. Parallel controls were carried out with the solvent (ethanol 0.1%). The incorporation of BrdU was determined with the ELISA test.
The cells were radiated with UVA light at an intensity of 1 J/cm^2 and the incorporation of BrdU was then analysed.

[1] = after UVA radiation, human keratinocytes

Compound | amount for 20 % incorporation of BrdU [1] [ng] | amount for 40 % incorporation of BrdU [1] [ng] | amount for 60 % incorporation of BrdU [1] [ng] | amount for 80 % incorporation of BrdU [1] [ng] | toxicity at the dose giving the same photosensitivisation as Curcuma extracts (10 ng/ml) | dose required to produce the same level of photosensitivisation as Curcuma extracts (after UV radiation, BrdU incorporation) [ng/mL]
COc1cc(/C=C/C(=O)CC(=O)/C=C/c2ccc(O)c(OC)c2)ccc1O [curcumin] | 1200 | 1000 | 800 | 600 | – | –
O=c1ccc2cc3ccoc3cc2o1 [psoralen] | – | – | – | – | toxic doses; also recorded: toxic and mutagenic effects are produced | 10
